Data from patent publication US20180170904A1, “PYRIDIN-3-YL ACETIC ACID DERIVATIVES AS INHIBITORS OF HUMAN IMMUNODEFICIENCY VIRUS REPLICATION” (priority 2015, published 2018).
pEC50: −log10 of the molar value.

test system: NL-RLuc virus (recombinant NL4-3 proviral clone with Renilla Luciferase gene); assay: Inhibition of HIV replication (NL-RLuc reporter virus in MT-2 cells); format: cell-based; conditions: Renilla, NL43, 120 h, read-out: Activity
Excerpt: Inhibition of HIV replication: A recombinant NL-RLuc proviral clone was constructed in which a section of the nef gene from NL4-3 was replaced with the Renilla Luciferase gene. This virus is fully infectious and can undergo multiple cycles of replication in cell culture. In addition, the luciferous reporter provides a simple and easy method for quantitating the extent of virus growth and consequently, the antiviral activity of test compounds. The plasmid pNLRLuc contains the proviral NL-Rluc DNA cloned into pUC18 at the PvuII site. The NL-RLuc virus was prepared by transfection of 293T cells with the plasmid pNLRLuc. Transfections were performed using the LipofectAMINE PLUS kit from Invitrogen (Carlsbad, Calif.) according to the manufacturer and the virus generated was titered in MT-2 cells. For susceptibility analyses, the titrated virus was used to infect MT-2 cells in the presence of compound, and after 5 days of incubation, cells were processed and quantitated for virus growth by the amount of expressed luciferase. Assay media was RPMI 1640 supplemented with 10% heat inactivated fetal bovine serum (FBS), 100 units/ml penicillin G/100 units/ml streptomycin, 10 mM HEPES buffer pH 7.55 and 2 mM L-glutamine. The results from at least 2 experiments were used to calculate the EC50 values. Luciferase was quantitated using the Dual Luciferase kit from Promega (Madison, Wis.). Susceptibility of viruses to compounds was determined by incubation in the presence of serial dilutions of the compound. The 50% effective concentration (EC50) was calculated by using the exponential form of the median effect equation where (Fa)=1/[1+(ED50/drug conc.)^m] (Johnson V A, Byington R T. Infectivity Assay. In Techniques in HIV Research. ed. Aldovini A, Walker B D. 71-76. New York: Stockton Press.1990). Activity equal to A refers to a compound having an EC50≤100 nM, while B and C denote compounds having an EC50 between 100 nM and 1 uM (B) or >1 uM (C).

Compared with `Cc1nc(C)c([C@H](OC(C)(C)C)C(=O)O)c(N2CCC(C)(C)CC2)c1-c1ccc(CC#N)cc1` [Example 48, (S)-2-(tert-Butoxy)-2-(5-(4-(cyanomethyl)phenyl)-4-(4,4-dimethylpiperidin-1-yl)-2,6-dimethylpyridin-3-yl)acetic acid], `Cc1nc(C)c([C@H](OC(C)(C)C)C(=O)O)c(N2CCC(C)(C)CC2)c1-c1ccc(CO)cc1` [Example 82, (S)-2-(tert-Butoxy)-2-(4-(4,4-dimethylpiperidin-1-yl)-5-(4-(hydroxymethyl)phenyl)-2,6-dimethylpyridin-3-yl)acetic acid] is higher in pEC50: 6.00 to 7.00 for the first, > 7.00 for the second.

First: Cc1nc(C)c([C@H](OC(C)(C)C)C(=O)O)c(N2CCC(C)(C)CC2)c1-c1cncnc1 [Example 28, (S)-2-(tert-Butoxy)-2-(4-(4,4-dimethylpiperidin-1-yl)-2,6-dimethyl-5-(pyrimidin-5-yl)pyridin-3-yl)acetic acid]
Second: Cc1nc(C)c([C@H](OC(C)(C)C)C(=O)O)c(N2CCC(C)(C)CC2)c1-c1ccccc1 [Example 7, (S)-2-(tert-Butoxy)-2-(4-(4,4-dimethylpiperidin-1-yl)-2,6-dimethyl-5-phenylpyridin-3-yl)acetic acid]
The pEC50 of the first is lower: 6.00 to 7.00 for the first, > 7.00 for the second. The second is the more potent here.

`Cc1nc(C)c([C@H](OC(C)(C)C)C(=O)O)c(N2CCC(C)(C)CC2)c1-c1ccc(/C=C/C#N)cc1` [Example 49, (S,E)-2-(tert-Butoxy)-2-(5-(4-(2-cyanovinyl)phenyl)-4-(4,4-dimethylpiperidin-1-yl)-2,6-dimethylpyridin-3-yl)acetic acid] and `Cc1nc(C)c([C@H](OC(C)(C)C)C(=O)O)c(N2CCC(C)(C)CC2)c1-c1ccc(N)cc1` [Example 70, (S)-2-(5-(4-Aminophenyl)-4-(4,4-dimethylpiperidin-1-yl)-2,6-dimethylpyridin-3-yl)-2-(tert-butoxy)acetic acid] fall in the same range of pEC50: 6.00 to 7.00 for the first, 6.00 to 7.00 for the second.

`Cc1nc(C)c([C@H](OC(C)(C)C)C(=O)O)c(N2CCC(C)(C)CC2)c1-c1ccc(S(=O)(=O)CCc2ccc(F)cc2)cc1` [Example 79, (S)-2-(tert-Butoxy)-2-(4-(4,4-dimethylpiperidin-1-yl)-5-(4-((4-fluorophenethyl)sulfonyl)phenyl)-2,6-dimethylpyridin-3-yl)acetic acid] and `Cc1nc(C)c([C@H](OC(C)(C)C)C(=O)O)c(N2CCC(C)(C)CC2)c1-c1ccc(SCCc2ccc(F)cc2)cc1` [Example 78, (S)-2-(tert-Butoxy)-2-(4-(4,4-dimethylpiperidin-1-yl)-5-(4-((4-fluorophenethyl)thio)phenyl)-2,6-dimethylpyridin-3-yl)acetic acid] cannot be ordered by pEC50: > 7.00 for the first, > 7.00 for the second.

`Cc1nc(C)c([C@H](OC(C)(C)C)C(=O)O)c(N2CCC(C)(C)CC2)c1-c1ccc(N(CCc2ccc(F)cc2)C(O)Cc2ccc(F)cc2)cc1` (stereo partly drawn) [Example 74, (2S)-2-(tert-Butoxy)-2-(4-(4,4-dimethylpiperidin-1-yl)-5-(4-((4-fluorophenethyl)(2-(4-fluorophenyl)-1-hydroxyethyl)amino)phenyl)-2,6-dimethylpyridin-3-yl)acetic acid] and `CC(=O)N(CCc1ccc(F)cc1)c1ccc(-c2c(C)nc(C)c([C@H](OC(C)(C)C)C(=O)O)c2N2CCC(C)(C)CC2)cc1` [Example 75, (S)-2-(tert-Butoxy)-2-(4-(4,4-dimethylpiperidin-1-yl)-5-(4-(N-(4-fluorophenethyl)acetamido)phenyl)-2,6-dimethylpyridin-3-yl)acetic acid] cannot be ordered by pEC50: > 7.00 for the first, > 7.00 for the second.

`Cc1nc(C)c([C@H](OC(C)(C)C)C(=O)O)c(N2CCC(C)(C)CC2)c1-c1ccc(F)c(F)c1` [Example 41, (S)-2-(tert-Butoxy)-2-(5-(3,4-difluorophenyl)-4-(4,4-dimethylpiperidin-1-yl)-2,6-dimethylpyridin-3-yl)acetic acid] and `Cc1nc(C)c([C@H](OC(C)(C)C)C(=O)O)c(N2CCC(C)(C)CC2)c1-c1cc(F)c(F)c(F)c1` [Example 33, (S)-2-(tert-Butoxy)-2-(4-(4,4-dimethylpiperidin-1-yl)-2,6-dimethyl-5-(3,4,5-trifluorophenyl)pyridin-3-yl)acetic acid] cannot be ordered by pEC50: > 7.00 for the first, > 7.00 for the second.

`COC1(C)CCN(c2c(-c3ccc(C(=O)NCc4ccccc4)cc3)c(C)nc(C)c2[C@H](OC(C)(C)C)C(=O)O)CC1` [Example 60, (S)-2-(5-(4-(Benzylcarbamoyl)phenyl)-4-(4-methoxy-4-methylpiperidin-1-yl)-2,6-dimethylpyridin-3-yl)-2-(tert-butoxy)acetic acid] and `CCC1(C)CCN(c2c(-c3ccc(C(=O)NCc4ccccc4)cc3)c(C)nc(C)c2[C@H](OC(C)(C)C)C(=O)O)CC1` [Example 56, (S)-2-(5-(4-(Benzylcarbamoyl)phenyl)-4-(4-ethyl-4-methylpiperidin-1-yl)-2,6-dimethylpyridin-3-yl)-2-(tert-butoxy)acetic acid] cannot be ordered by pEC50: > 7.00 for the first, > 7.00 for the second.

`Cc1nc(C)c([C@H](OC(C)(C)C)C(=O)O)c(N2CCC(C)(C)CC2)c1-c1ccc(S(=O)(CCc2ccc(F)cc2)=NC(=O)OC(C)(C)C)cc1` (stereo partly drawn) [Example 81, (2S)-2-(tert-Butoxy)-2-(5-(4-(N-(tert-butoxycarbonyl)-2-(4-fluorophenyl)ethylsulfonimidoyl)phenyl)-4-(4,4-dimethylpiperidin-1-yl)-2,6-dimethylpyridin-3-yl)acetic acid] and `Cc1nc(C)c([C@H](OC(C)(C)C)C(=O)O)c(N2CCC(C)(C)CC2)c1-c1ccc(NC(=O)Cc2ccc(F)cc2)cc1` [Example 72, (S)-2-(tert-Butoxy)-2-(4-(4,4-dimethylpiperidin-1-yl)-5-(4-(2-(4-fluorophenyl)acetamido)phenyl)-2,6-dimethylpyridin-3-yl)acetic acid] cannot be ordered by pEC50: > 7.00 for the first, > 7.00 for the second.

Compared with `Cc1nc(C)c([C@H](OC(C)(C)C)C(=O)O)c(N2CCC(c3ccccc3)CC2)c1-c1ccc(C(=O)NCc2ccccc2)cc1` [Example 62, (S)-2-(5-(4-(Benzylcarbamoyl)phenyl)-2,6-dimethyl-4-(4-phenylpiperidin-1-yl)pyridin-3-yl)-2-(tert-butoxy)acetic acid], `Cc1nc(C)c([C@H](OC(C)(C)C)C(=O)O)c(N2CCC(C)(C)CC2)c1-c1ccc(C(=O)NCc2ccccn2)cc1` [Example 66, (S)-2-(tert-Butoxy)-2-(4-(4,4-dimethylpiperidin-1-yl)-2,6-dimethyl-5-(4-((pyridin-2-ylmethyl)carbamoyl)phenyl)pyridin-3-yl)acetic acid] is higher in pEC50: < 6.00 for the first, > 7.00 for the second.

`Cc1nc(C)c([C@H](OC(C)(C)C)C(=O)O)c(N2CCC(C)(C)CC2)c1-c1ccc(C2(C#N)CC2)cc1` [Example 27, (S)-2-(tert-Butoxy)-2-(5-(4-(1-cyanocyclopropyl)phenyl)-4-(4,4-dimethylpiperidin-1-yl)-2,6-dimethylpyridin-3-yl)acetic acid] and `Cc1nc(C)c([C@H](OC(C)(C)C)C(=O)O)c(N2CCC(C)(C)CC2)c1-c1ccc(C(=O)NC2CC2)cc1` [Example 43, (S)-2-(tert-Butoxy)-2-(5-(4-(cyclopropylcarbamoyl)phenyl)-4-(4,4-dimethylpiperidin-1-yl)-2,6-dimethylpyridin-3-yl)acetic acid] cannot be ordered by pEC50: > 7.00 for the first, > 7.00 for the second.

First: CC(=O)NNC(=O)c1ccc(-c2c(C)nc(C)c([C@H](OC(C)(C)C)C(=O)O)c2N2CCC(C)(C)CC2)cc1 [Example 37, (S)-2-(5-(4-(2-Acetylhydrazinecarbonyl)phenyl)-4-(4,4-dimethylpiperidin-1-yl)-2,6-dimethylpyridin-3-yl)-2-(tert-butoxy)acetic acid]
Second: Cc1nc(C)c([C@H](OC(C)(C)C)C(=O)O)c(N2CCC(C)(C)CC2)c1-c1ccc(S(=O)(=O)C(C)C)cc1 [Example 30, (S)-2-(tert-Butoxy)-2-(4-(4,4-dimethylpiperidin-1-yl)-5-(4-(isopropylsulfonyl)phenyl)-2,6-dimethylpyridin-3-yl)acetic acid]
The pEC50 of the first is lower: < 6.00 for the first, > 7.00 for the second.

`Cc1ccc(-c2c(C)nc(C)c([C@H](OC(C)(C)C)C(=O)O)c2N2CCC(C)(C)CC2)cc1C` [Example 44, (S)-2-(tert-Butoxy)-2-(5-(3,4-dimethylphenyl)-4-(4,4-dimethylpiperidin-1-yl)-2,6-dimethylpyridin-3-yl)acetic acid] and `CCCCCc1ccc(-c2c(C)nc(C)c([C@H](OC(C)(C)C)C(=O)O)c2N2CCC(C)(C)CC2)cc1` [Example 22, (S)-2-(tert-Butoxy)-2-(4-(4,4-dimethylpiperidin-1-yl)-2,6-dimethyl-5-(4-pentylphenyl)pyridin-3-yl)acetic acid] cannot be ordered by pEC50: > 7.00 for the first, > 7.00 for the second.

In the case of `Cc1nc(C)c([C@H](OC(C)(C)C)C(=O)O)c(N2CCC(C)(C)CC2)c1-c1ccc(C=Cc2ccc(F)cc2)cc1` [Example 84, (S)-2-(tert-Butoxy)-2-(4-(4,4-dimethylpiperidin-1-yl)-5-(4-(4-fluorostyryl)phenyl)-2,6-dimethylpyridin-3-yl)acetic acid], the pEC50 was 6.00 to 7.00.

same assay, conditions: Renilla, NL43, 120 h, read-out: EC50 μM

Point of comparison: `Cc1nc(C)c([C@H](OC(C)(C)C)C(=O)O)c(N2CCC(C)(C)CC2)c1-c1ccc(SCCc2ccc(F)cc2)cc1` [Example 78, (S)-2-(tert-Butoxy)-2-(4-(4,4-dimethylpiperidin-1-yl)-5-(4-((4-fluorophenethyl)thio)phenyl)-2,6-dimethylpyridin-3-yl)acetic acid], EC50 0.016 µM. Against it:
- Cc1nc(C)c([C@H](OC(C)(C)C)C(=O)O)c(N2CCC(C)(C)CC2)c1-c1ccc(CC#N)cc1 [Example 48, (S)-2-(tert-Butoxy)-2-(5-(4-(cyanomethyl)phenyl)-4-(4,4-dimethylpiperidin-1-yl)-2,6-dimethylpyridin-3-yl)acetic acid] — 6.8-fold higher, 0.109 µM
- CC(=O)NNC(=O)c1ccc(-c2c(C)nc(C)c([C@H](OC(C)(C)C)C(=O)O)c2N2CCC(C)(C)CC2)cc1 [Example 37, (S)-2-(5-(4-(2-Acetylhydrazinecarbonyl)phenyl)-4-(4,4-dimethylpiperidin-1-yl)-2,6-dimethylpyridin-3-yl)-2-(tert-butoxy)acetic acid] — 72-fold higher, 1.15 µM
- Cc1nc(C)c([C@H](OC(C)(C)C)C(=O)O)c(N2CCC(C)(C)CC2)c1-c1ccc(C=Cc2ccc(F)cc2)cc1 [Example 84, (S)-2-(tert-Butoxy)-2-(4-(4,4-dimethylpiperidin-1-yl)-5-(4-(4-fluorostyryl)phenyl)-2,6-dimethylpyridin-3-yl)acetic acid] — 7.9-fold higher, 0.126 µM
